# Test results: US20150290357A1, “ANTIMICROBIAL ADHESIVE” (GeneJet Biotech, Inc., priority 2014, published 2015)
# Tested on: staphylococcus aureus
# Experiment: Antimicrobial inhibition zone test based on ATCC6538p
# Type: cell-based
# Method: The antimicrobial adhesive prepared by the foregoing method is placed in a 7 ml glass vial and it is used to perform stability test for Ag/PP particulates, polymerization test for the cyanoacrylate monomers (as shown in Table 1), antimicrobial test for staphylococcus aureus (as shown in Table 2) and antimicrobial test for escherichia coli (as shown in Table 3).
smiles,measurement,setting,value
"C=C(C#N)C(=O)OC(C)CCCCCC (centres unmarked) [Experiment C, 2-octyl cyanoacrylate]",Increased in the diameter of inhibition zone (%) (compared to Control),compared to Control (filter paper),16.4%
same,Diameter of inhibition zone,"on filter paper, ATCC6538p",0.93 cm
